Assay results: paper PMC3908770 (Journal of medicinal chemistry, 2013)
“Also recorded” adds a separate entry of the source. Where two headings read alike, the source gives them in different places.

Experiments:
[1] = biological target: T1, rat mGlu5 (Rattus norvegicus, UniProt P31424); conditions: cited from earlier work
[2] = Cmax minimum active dose AHL versus Cmax minimum adverse effect dose; cited from earlier work
[3] = system: Schaffer collateral – CA1 (SC-CA1) synapse; conditions: cited from earlier work
[4] = cited from earlier work; for Seizure activity / liability in vivo: rodents
[5] = system: CA3 pyramidal neurons; conditions: hippocampal preparations; prior studies; cited from earlier work
[6] = biological target: mGlu5 W784A (Rattus norvegicus, UniProt P31424, W784A); test: Progressive fold-shift at mGlu5 point mutant, operational model of allosterism
Chain of mGlu5 W784A (P31424 21-1203 W784A): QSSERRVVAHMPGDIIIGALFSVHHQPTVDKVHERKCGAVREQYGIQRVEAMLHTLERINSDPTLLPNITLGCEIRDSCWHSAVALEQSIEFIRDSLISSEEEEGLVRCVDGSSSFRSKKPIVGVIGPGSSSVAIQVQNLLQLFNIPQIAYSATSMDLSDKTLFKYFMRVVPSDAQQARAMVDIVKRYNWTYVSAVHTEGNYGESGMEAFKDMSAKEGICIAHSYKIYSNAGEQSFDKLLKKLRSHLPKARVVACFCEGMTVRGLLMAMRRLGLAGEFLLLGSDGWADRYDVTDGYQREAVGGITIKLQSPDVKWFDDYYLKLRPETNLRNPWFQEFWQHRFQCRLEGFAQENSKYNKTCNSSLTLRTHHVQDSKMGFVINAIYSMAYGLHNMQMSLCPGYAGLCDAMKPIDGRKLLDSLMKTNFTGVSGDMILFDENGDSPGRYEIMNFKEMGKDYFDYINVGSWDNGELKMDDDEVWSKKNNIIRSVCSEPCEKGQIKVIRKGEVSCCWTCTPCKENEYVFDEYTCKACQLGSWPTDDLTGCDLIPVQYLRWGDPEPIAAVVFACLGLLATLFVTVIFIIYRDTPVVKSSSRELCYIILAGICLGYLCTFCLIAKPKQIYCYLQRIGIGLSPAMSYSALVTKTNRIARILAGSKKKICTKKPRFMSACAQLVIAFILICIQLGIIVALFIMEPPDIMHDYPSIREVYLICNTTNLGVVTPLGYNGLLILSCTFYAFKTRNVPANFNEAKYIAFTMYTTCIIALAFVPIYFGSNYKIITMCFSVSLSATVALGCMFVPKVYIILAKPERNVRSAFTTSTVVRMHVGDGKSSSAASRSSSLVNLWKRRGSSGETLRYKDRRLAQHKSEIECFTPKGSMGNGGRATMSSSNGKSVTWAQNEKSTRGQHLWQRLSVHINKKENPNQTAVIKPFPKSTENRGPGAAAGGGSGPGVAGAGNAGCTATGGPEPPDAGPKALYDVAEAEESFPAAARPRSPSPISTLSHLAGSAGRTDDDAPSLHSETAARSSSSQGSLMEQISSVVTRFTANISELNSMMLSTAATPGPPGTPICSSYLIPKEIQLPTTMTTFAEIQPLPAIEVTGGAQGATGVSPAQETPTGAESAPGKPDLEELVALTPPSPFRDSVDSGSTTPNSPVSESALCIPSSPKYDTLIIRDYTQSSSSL

[7] = biological target: mGlu5 S808A (Rattus norvegicus, UniProt P31424, S808A); test: as above
Chain of mGlu5 S808A (P31424 21-1203 S808A): as the sequence (P31424 21-1203 W784A) above, with A764W, S788A counted along it

[8] = biological target: T1, rat mGlu5; conditions: operational model of allosterism
[9] = Amphetamine induced hyperlocomotion, in vivo model of psychosis; conditions: high dose, preliminary
[10] = system: Schaffer collateral – CA1 (SC-CA1) synapse; test: Long-term depression; conditions: compound on its own, rat hippocampus
[11] = biological target: T1, rat mGlu5; conditions: increasing concentrations
[12] = system: panel of 68 GPCRs, ion channels and transporters; test: Off-target panel screen; type: binding; conditions: 10 µM, 68 targets
[13] = cited from earlier work
[14] = human; cited from earlier work
[15] = rat; cited from earlier work

T1 sequence (P31424 21-1203): as the sequence (P31424 21-1203 W784A) above, with A764W counted along it

O=C(N[C@H]1C[C@H](O)C1)c1ccc(C#Cc2cccc(F)c2)cn1 [Compound 22]
Agonist activity in mGlu5 low-expressing cell line [1]: significant ago-PAM activity

C[C@@H]1CC[C@H](c2noc(-c3ccc(F)cn3)n2)CN1C(=O)c1ccccc1 [Compound 5PAM523]
Therapeutic index [2]: 2 fold

C[C@@H](NC(=O)c1ccc(C#Cc2cccc(F)c2)cn1)C(C)(C)O [Compound 19, (R)-5-((3-Fluorophenyl)ethynyl)-N-(3-hydroxy-3-methylbutan-2-yl)picolinamide]
Induction of LTD at SC-CA1 synapse [3]: induces LTD | Allosteric agonism in mGlu5 cell line with low receptor density [1]: ago-PAM activity | Seizure activity / liability in vivo [4]: causes seizure activity | Epileptiform activity in CA3 pyramidal neurons [5]: induction of epileptiform activity

O=C1c2ccc(F)cc2CCC2CC[C@@H](c3noc(-c4ccc(F)cn4)n3)CN12 (stereo partly shown) [Compound 5PAM916]
Therapeutic index [2]: 18 fold

C[C@@H](NC(=O)c1ccc(C#Cc2ccccn2)cn1)C(C)(C)O [Compound 31i, (R)-N-(3-Hydroxy-3-methylbutan-2-yl)-5-(pyridin-2-ylethynyl)picolinamide]
Effect of W784A mutation [6]: gain in allosteric agonist activity

CC1(NC(=O)c2ccc(C#Cc3cccc(F)c3)cn2)COC1 [Compound 38t, 5-((3-Fluorophenyl)ethynyl)-N-(3-methyloxetan-3-yl)picolinamide]
Effect of S808A mutation [7]: NAM switch | Efficacy cooperativity factor (logβ) between glutamate and modulator [8]: 0.34 | Predicted affinity (log value) ([8]; progressive fold-shift): −6.81 | Behavioral disturbances [9]: no overt behavioral disturbances | Reversal of amphetamine induced hyperlocomotion ([9]; data not shown): robust reversal | Induction of LTD at SC-CA1 synapse [10]: no effect; also recorded: does not induce LTD | Inhibition of [^3H]methoxyPEPy binding [11]: complete inhibition | Off target activity [12]: no significant off target activity

O=C(NC1CCC1)c1ccc(C#Cc2cccc(F)c2)nc1 [Compound 26]
Plasma protein binding [13]: 98.9%

O=C(NC1CCC1)c1ccc(C#Cc2cccc(F)c2)cn1 [Compound 21]
Plasma protein binding [14]: > 99 % bound | fu plasma [14]: < 1% | Agonist activity in mGlu5 low-expressing cell line [1]: demonstrates agonist activity | Plasma protein binding [15]: > 99 % bound | fu plasma [15]: < 1% | Seizure liability in animal models [4]: possesses a seizure liability

O=C(c1ccc(C#Cc2cccc(F)c2)nc1)N1CCC(O)CC1 [Compound 20]
Allosteric agonism in mGlu5 cell line with low receptor density [1]: devoid of agonism | Seizure activity / liability in vivo [4]: did not display a seizure liability
